Assays:
[1] = healthy individuals, cited from earlier work
[2] = Serum vitamin B12 levels after inhalation of aerosolized sample (Example 7); assay type: in vivo; details: 75 minutes after initial inhalation
Protocol: An electronic inhaler device powered by a 4.2V, 320 mAh lithium-ion battery was used to aerosolize a sample containing vitamin B12 in organic vegetable glycerin and 1,3-propanediol and the aerosolized sample was inhaled by test subjects. The sample was heated to between 75 to 260° C. with a 3 ohm heating element in about 2 to about 3 second intervals with about 5 to about 10 second rest periods for a total of […]. The mixture contained 60% glycerin and 40% 1,3-propanediol to which 2 mg/ml vitamin B12 was added. Serum vitamin B12 levels were measured in the test subjects before inhalation of the aerosolized sample and 75 minutes after initial inhalation of the aerosolized sample. Before inhalation, serum B12 levels averaged 403.0 pg/ml.

increase of serum B12 compared to levels before inhalation [2]: 5.4% | serum B12 levels after inhalation (average) ([2]; 2 mg/ml vitamin B12, before inhalation 403.0 pg/ml): 424.7 pg/mL
Substance: cobalamin [vitamin B12]
fraction of oral supplement absorbed ([1]; 500 mcg oral supplement): 2% | amount of oral supplement absorbed ([1]; of a 500 mcg oral supplement): about 10 mcg
